Laboratory results from patent US20230218710A1, “METHOD OF TREATING CORONAVIRUS INFECTIONS” (priority 2020, published 2023).
Marks after values point to notes of the source that are not given here.

Legend:
[1] = system: LPS-induced acute lung injury mouse model; experiment: LPS-induced acute lung injury model in mouse (Example 8); type: in vivo, mice; conditions: HCl salts; for Pro-inflammatory Cytokine Level IFNγ / Pro-inflammatory Cytokine Level IL-1β / Pro-inflammatory Cytokine Level IL-2 / Pro-inflammatory Cytokine Level IL-4 / Pro-inflammatory Cytokine Level IL-5 / Pro-inflammatory Cytokine Level IL-6 / Pro-inflammatory Cytokine Level IL-9 / Pro-inflammatory Cytokine Level IL-10 / Pro-inflammatory Cytokine Level IL-12p70 / Pro-inflammatory Cytokine Level IL-17A / Pro-inflammatory Cytokine Level IL-17A/F / Pro-inflammatory Cytokine Level IL-17C / Pro-inflammatory Cytokine Level IL-17E/IL-25 / Pro-inflammatory Cytokine Level IL-23 / Pro-inflammatory Cytokine Level IL-27p28/IL-30 / Pro-inflammatory Cytokine Level IL-31 / Pro-inflammatory Cytokine Level IP-10 / Pro-inflammatory Cytokine Level KC/GRO / Pro-inflammatory Cytokine Level MCP-1 / Pro-inflammatory Cytokine Level MIP-1α / Pro-inflammatory Cytokine Level MIP-2 / Pro-inflammatory Cytokine Level MIP-3α / Pro-inflammatory Cytokine Level TNFα: BALF; for Mean (SEM) Alveolar Neutrophil Infiltration Score / Mean (SEM) Interstitial Neutrophil Infiltration Score / Mean (SEM) Composite Lung Injury Score: histopathology; for Mean (SEM) Alveolar Neutrophil Infiltration Score / Mean (SEM) Interstitial Neutrophil Infiltration Score: 0-5 scale
Description: The effect of the peptides of the current invention on acute lung injury can be assessed in an LPS-induced acute lung injury mouse model by monitoring outcomes such as lung weight, fluid accumulation, cytokine secretion in blood or bronchoalveolar lavage fluid (BALF), neutrophil infiltration into lung tissues, and assessment of acute lung injury score by histopathology. Acute lung injury was induced in male C57BL/6 mice (6 to 8 weeks old) by intratracheal administration of 40 μL lipopolysaccharide (LPS) (Sigma Aldrich, St. Louis, Mo.) in PBS at 5 mg/kg. Control animals received intratracheal PBS alone. Animals (n=8 per treatment group) induced with LPS received intraperitoneal treatment with: PBS (vehicle control) or test peptides at 5 or 15 mg/kg in water. Treatments were administered 1 h prior to LPS for animals designated for termination at 4 h after LPS, or at both 1 h prior to and 6 h after LPS for animals designated for termination at 24 h after LPS. At 4 or 24 hours post-LPS administration, tissues were harvested. Lungs were weighed and flushed with Hanks Buffer to provide bronchoalveolar lavage fluid (BALF). Lungs collected at 24 h were fixed in 10% neutral buffered formalin (NBF) for histopathology. Tissue slides were stained with hematoxylin and eosin (H&E) and evaluated and scored with light microscopy of 5 representative microscopic fields (100× magnification) scoring on a 0-5 scale using standard methods (Matute-Bello G et al 2011. An Official American Thoracic Society Workshop Report: Features and Measurements of Experimental Acute Lung Injury in Animals. Am J Respir Cell Mol Biol 44:725-38). The average score for five fields was calculated for each animal. Levels of pro-inflammatory cytokines in BALF at 4 h were determined using a meso scale discovery (MSD) system. Data for test peptides were compared to the vehicle control group. Table 13 compares the lung weights following LPS induction and treatment with PBS (vehicle control), or peptides. Table 14 compares the levels of pro-inflammatory cytokines in BALF following LPS induction and treatment with PBS (vehicle control) or peptides. Table 15 compares the histopathology scores for infiltration of neutrophils into alveoli and interstitial lung tissue and the composite lung injury score following LPS induction and treatment with PBS (vehicle control) or peptides.

Apelin Receptor (APJ) = target: T1, Apelin Receptor (APJ) (Homo sapiens, UniProt P35414); experiment: Phosphorylation of MEK1 in cultured cells overexpressing APJ; type: cell-based; conditions: 5 min, 100 nM Pyr-Apelin-13 = positive control, acetate salts
T1 construct: host or cells: CHO-K1 AGTRL1 Gi cells
T1 sequence (P35414 1-380): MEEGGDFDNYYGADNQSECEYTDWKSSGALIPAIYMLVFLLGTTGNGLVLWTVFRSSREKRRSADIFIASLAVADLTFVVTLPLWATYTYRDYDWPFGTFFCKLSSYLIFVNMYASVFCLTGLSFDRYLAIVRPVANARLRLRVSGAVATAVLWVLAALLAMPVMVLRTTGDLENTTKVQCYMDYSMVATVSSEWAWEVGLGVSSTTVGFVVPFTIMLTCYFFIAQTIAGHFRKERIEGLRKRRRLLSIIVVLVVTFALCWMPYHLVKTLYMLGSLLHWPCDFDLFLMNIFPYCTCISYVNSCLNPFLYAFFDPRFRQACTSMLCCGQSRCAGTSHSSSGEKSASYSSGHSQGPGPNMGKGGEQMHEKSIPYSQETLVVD
Description: Peptides were initially prepared as 100× stocks in H2O. […] Following a 5 min incubation, the supernatant was removed and the cells were placed on ice and washed twice with cold HBSS. The HBSS was removed and the cells were immediately lysed in 300 μl/well of 1× lysis buffer (CST 10× Lysis Buffer; Cell Signaling Technology; Danvers, Mass.); lysis buffer was supplemented with 1 mM PMSF (Millipore-Sigma; Saint Louis, Mo.) and Halt Protease/Phosphatase Inhibitor Cocktail (Thermo-Fisher; Waltham, Mass.) prior to use. The samples were then placed on ice for 10 min, the wells were scraped and lysates were centrifuged at 12,500 rpm for 10 min at 4° C., and p-MEK expression in each sample was measured using Phospho-MEK1 (Ser217/221) Sandwich ELISA kit according to manufacturer's instructions (Cell Signaling Technology; Danvers, Mass.). Absorbance was measured using a Cytation 3 plate reader at […] (BioTek; Winooski, Vt.). […] Each data point represents the average of duplicate assays.

(PEG12)KRRLLGLVFQSLCG(dA) (KRRLLGLVFQSLCGA; N-terminal PEG12; C-terminal D-alanine; (1)..(1) PEG12; (15)..(15) D-Ala) [SEQ ID NO: 37]
Mean (SEM) Lung Weight ([1]; 4 h after LPS, 5 mg/kg i.p.): 0.279 (0.006) g
Mean (SEM) Lung Weight ([1]; 4 h after LPS, 15 mg/kg i.p.): 0.280 (0.005) g
Mean (SEM) Lung Weight ([1]; 24 h after LPS, 5 mg/kg i.p.): 0.286 (0.008)* g
Mean (SEM) Lung Weight ([1]; 24 h after LPS, 15 mg/kg i.p.): 0.284 (0.007)* g
Pro-inflammatory Cytokine Level IFNγ ([1]; 4 h after LPS, 5 mg/kg i.p.): 0.37 (0.07) pg/mL
Pro-inflammatory Cytokine Level IL-1β ([1]; 4 h after LPS, 5 mg/kg i.p.): 68.3 (12.6) pg/mL
Pro-inflammatory Cytokine Level IL-2 ([1]; 4 h after LPS, 5 mg/kg i.p.): 2.83 (0.45) pg/mL
Pro-inflammatory Cytokine Level IL-4 ([1]; 4 h after LPS, 5 mg/kg i.p.): 1.63 (0.37) pg/mL
Pro-inflammatory Cytokine Level IL-5 ([1]; 4 h after LPS, 5 mg/kg i.p.): 8.14 (1.35) pg/mL
Pro-inflammatory Cytokine Level IL-6 ([1]; 4 h after LPS, 5 mg/kg i.p.): 9380 (1380) pg/mL
Pro-inflammatory Cytokine Level IL-9 ([1]; 4 h after LPS, 5 mg/kg i.p.): 7.84 (0.67) pg/mL
Pro-inflammatory Cytokine Level IL-10 ([1]; 4 h after LPS, 5 mg/kg i.p.): 32.2 (5.31) pg/mL
Pro-inflammatory Cytokine Level IL-12p70 ([1]; 4 h after LPS, 5 mg/kg i.p.): 65.2 (15.9) pg/mL
Pro-inflammatory Cytokine Level IL-17A ([1]; 4 h after LPS, 5 mg/kg i.p.): 2.22 (0.741) pg/mL
Pro-inflammatory Cytokine Level IL-17A/F ([1]; 4 h after LPS, 5 mg/kg i.p.): 7.45 (2.46) pg/mL
Pro-inflammatory Cytokine Level IL-17C ([1]; 4 h after LPS, 5 mg/kg i.p.): 0.66 (0.04) pg/mL
Pro-inflammatory Cytokine Level IL-17E/IL-25 ([1]; 4 h after LPS, 5 mg/kg i.p.): 0.18 (0.10) pg/mL
Pro-inflammatory Cytokine Level IL-23 ([1]; 4 h after LPS, 5 mg/kg i.p.): 0.08 (0.07) pg/mL
Pro-inflammatory Cytokine Level IL-27p28/IL-30 ([1]; 4 h after LPS, 5 mg/kg i.p.): 13.7 (2.44) pg/mL
Pro-inflammatory Cytokine Level IL-31 ([1]; 4 h after LPS, 5 mg/kg i.p.): 0.00 (0.00) pg/mL
Pro-inflammatory Cytokine Level IP-10 ([1]; 4 h after LPS, 5 mg/kg i.p.): 2290 (341) pg/mL
Pro-inflammatory Cytokine Level KC/GRO ([1]; 4 h after LPS, 5 mg/kg i.p.): 3120 (196) pg/mL
Pro-inflammatory Cytokine Level MCP-1 ([1]; 4 h after LPS, 5 mg/kg i.p.): 1310 (225) pg/mL
Pro-inflammatory Cytokine Level MIP-1α ([1]; 4 h after LPS, 5 mg/kg i.p.): 5660 (50.6) pg/mL
Pro-inflammatory Cytokine Level MIP-2 ([1]; 4 h after LPS, 5 mg/kg i.p.): 3230 (25.1) pg/mL
Pro-inflammatory Cytokine Level MIP-3α ([1]; 4 h after LPS, 5 mg/kg i.p.): 983 (75.1) pg/mL
Pro-inflammatory Cytokine Level TNFα ([1]; 4 h after LPS, 5 mg/kg i.p.): 4070 (518) pg/mL
Pro-inflammatory Cytokine Level IFNγ ([1]; 4 h after LPS, 15 mg/kg i.p.): 0.42 (0.10) pg/mL
Pro-inflammatory Cytokine Level IL-1β ([1]; 4 h after LPS, 15 mg/kg i.p.): 91.5 (20.0) pg/mL
Pro-inflammatory Cytokine Level IL-2 ([1]; 4 h after LPS, 15 mg/kg i.p.): 3.36 (0.55) pg/mL
Pro-inflammatory Cytokine Level IL-4 ([1]; 4 h after LPS, 15 mg/kg i.p.): 1.75 (0.28) pg/mL
Pro-inflammatory Cytokine Level IL-5 ([1]; 4 h after LPS, 15 mg/kg i.p.): 13.2 (2.05) pg/mL
Pro-inflammatory Cytokine Level IL-6 ([1]; 4 h after LPS, 15 mg/kg i.p.): 11600 (1360) pg/mL
Pro-inflammatory Cytokine Level IL-9 ([1]; 4 h after LPS, 15 mg/kg i.p.): 7.89 (1.31) pg/mL
Pro-inflammatory Cytokine Level IL-10 ([1]; 4 h after LPS, 15 mg/kg i.p.): 31.5 (3.76) pg/mL
Pro-inflammatory Cytokine Level IL-12p70 ([1]; 4 h after LPS, 15 mg/kg i.p.): 80.0 (21.8) pg/mL
Pro-inflammatory Cytokine Level IL-17A ([1]; 4 h after LPS, 15 mg/kg i.p.): 2.82 (0.639) pg/mL
Pro-inflammatory Cytokine Level IL-17A/F ([1]; 4 h after LPS, 15 mg/kg i.p.): 4.48 (0.59) pg/mL
Pro-inflammatory Cytokine Level IL-17C ([1]; 4 h after LPS, 15 mg/kg i.p.): 0.69 (0.13) pg/mL
Pro-inflammatory Cytokine Level IL-17E/IL-25 ([1]; 4 h after LPS, 15 mg/kg i.p.): 0.44 (0.29) pg/mL
Pro-inflammatory Cytokine Level IL-23 ([1]; 4 h after LPS, 15 mg/kg i.p.): 0.06 (0.05) pg/mL
Pro-inflammatory Cytokine Level IL-27p28/IL-30 ([1]; 4 h after LPS, 15 mg/kg i.p.): 15.5 (2.42) pg/mL
Pro-inflammatory Cytokine Level IL-31 ([1]; 4 h after LPS, 15 mg/kg i.p.): 0.00 (0.00) pg/mL
Pro-inflammatory Cytokine Level IP-10 ([1]; 4 h after LPS, 15 mg/kg i.p.): 3020 (547) pg/mL
Pro-inflammatory Cytokine Level KC/GRO ([1]; 4 h after LPS, 15 mg/kg i.p.): 3260 (142) pg/mL
Pro-inflammatory Cytokine Level MCP-1 ([1]; 4 h after LPS, 15 mg/kg i.p.): 1590 (178) pg/mL
Pro-inflammatory Cytokine Level MIP-1α ([1]; 4 h after LPS, 15 mg/kg i.p.): 5490 (35.1) pg/mL
Pro-inflammatory Cytokine Level MIP-2 ([1]; 4 h after LPS, 15 mg/kg i.p.): 3160 (34.2) pg/mL
Pro-inflammatory Cytokine Level MIP-3α ([1]; 4 h after LPS, 15 mg/kg i.p.): 825 (46.9) pg/mL
Pro-inflammatory Cytokine Level TNFα ([1]; 4 h after LPS, 15 mg/kg i.p.): 3910 (349) pg/mL
Mean (SEM) Alveolar Neutrophil Infiltration Score ([1]; 24 h after LPS, 5 mg/kg i.p.): 1.50 (0.09)
Mean (SEM) Interstitial Neutrophil Infiltration Score ([1]; 24 h after LPS, 5 mg/kg i.p.): 1.55 (0.14)
Mean (SEM) Alveolar Neutrophil Infiltration Score ([1]; 24 h after LPS, 15 mg/kg i.p.): 1.60 (0.13)
Mean (SEM) Interstitial Neutrophil Infiltration Score ([1]; 24 h after LPS, 15 mg/kg i.p.): 1.23 (0.11)
Mean (SEM) Composite Lung Injury Score ([1]; 24 h after LPS, 5 mg/kg i.p.): 3.08 (0.17)
Mean (SEM) Composite Lung Injury Score ([1]; 24 h after LPS, 15 mg/kg i.p.): 2.93 (0.22)
pMEK1 (% of Positive Control) (Apelin Receptor (APJ); 2.0 μM peptide): 8.7%
pMEK1 (% of Positive Control) (Apelin Receptor (APJ); 10 μM peptide): 45.5%
pMEK1 (% of Positive Control) (Apelin Receptor (APJ); 50 μM peptide): 79.4%
